Laboratory results published in patent US20250368623A1, “PYRIDAZINONE-DERIVED COMPOUNDS FOR THE MODULATION OF MYC AND FOR MEDICAL USES” (GENETIC INTELLIGENCE, INC, priority 2022, published 2025).
Like-named read-outs stand apart in the source and are kept apart here.

Assays:
[1] = system: HepG2; assay: Mouse hollow fiber model, liver cancer (HepG2); format: in vivo; conditions: liver cancer HepG2 hollow fibers s.c. in mice; 50 mg/kg orally once daily for five days; modified MTT; vs Day 5 vehicle
Procedure: (§1) The in vivo efficacy of test compounds (e.g., 6-(2,4-dimethylthiazol-5-yl)-2-((1-(pyrido[2,3-d]pyrimidin-4-yl)piperidin-4-yl)methyl)pyridazin-3(2H)-one) on cancer cells is determined using the mouse hollow fiber model established at the National Cancer Institute (NCI). Triple negative breast cancer (TNBC) (MDA-MB-231), pancreatic cancer (Mia-PaCa-2), and liver cancer (HepG2) cells are added to differently colored hollow fibers (KrosoFlo@Implant membrane, Green: Lot No.: 20051617, Blue: Lot No.: 20008858, White: Lot No.: 20051615) and sealed at both ends. Three hollow fibers each containing a different cancer line are surgically implanted subcutaneously into both the left and right flanks of mice (total of six hollow fibers per mouse). Drug treatment is initiated on Day 0, three days post implantation of fibers. Each treatment group has 2 mice (4 hollow fibers per cancer type): Group 1: Vehicle control; Group 2: Gemcitabine control dosed intraperitoneally (i.p.) at 50 mg/kg once every three days; Group 3: Test compound dosed orally at 50 mg/kg once daily for five days. […] Mean % net cell growth is calculated using the formula [(mean OD(day5)−mean OD(day0))/(mean OD(day0))×100%]. Mean % inhibition of cell growth due to treatment is calculated relative to the mean % net cell growth of the Day 5 vehicle control for the particular cancer line.

[2] = Body weight and clinical signs in the mouse xenograft study; format: in vivo; conditions: 15-100 mg/kg orally once daily for 3 weeks, throughout the study
Procedure: (§2) The in vivo efficacy of test compounds (e.g., 6-(2,4-dimethylthiazol-5-yl)-2-((1-(pyrido[2,3-d]pyrimidin-4-yl)piperidin-4-yl)methyl)pyridazin-3(2H)-one) on cancer cells is determined using a mouse xenograft model of TNBC (MDA-MB-231). 5×10^6 MDA-MB-231 cells (in 0.2 ml of FBS-free medium containing 50% Matrigel) are injected into the subcutaneous tissue of each mouse. Treatment is initiated (Day 0) when the average tumor volume reaches 100 mm^3. Tumor bearing mice are treated with vehicle and different doses of test compound (15 mg/kg, 35 mg/kg, 50 mg/kg, and 100 mg/kg) orally, once daily, for 3 weeks. Tumor volumes (mm^3) are measured post-implantation of cells once every 2-3 days throughout the study. At the end of the treatment period, a portion of the tumor tissue is excised and homogenized to analyze the levels of MYC biomarker using ELISA. Blood samples are collected from mice treated with test compound 8 hours after the final dose.

[3] = system: Mia-PaCa-2; assay: Mouse hollow fiber model, pancreatic cancer (Mia-PaCa-2); format: in vivo; conditions: pancreatic cancer Mia-PaCa-2 hollow fibers s.c. in mice; 50 mg/kg orally once daily for five days; modified MTT; vs Day 5 vehicle
Procedure: as §1

[4] = system: MDA-MB-231; assay: Mouse xenograft model of TNBC (MDA-MB-231), tumor volume and histopathology; format: in vivo
Procedure: as §2

[5] = system: MDA-MB-231; assay: Mouse hollow fiber model, TNBC (MDA-MB-231); format: in vivo; conditions: TNBC MDA-MB-231 hollow fibers s.c. in mice; 50 mg/kg orally once daily for five days; modified MTT; vs Day 5 vehicle
Procedure: as §1

[6] = Body weight and clinical signs in the mouse hollow fiber study; format: in vivo; conditions: mice, 50 mg/kg orally once daily for 5 days
Procedure: as §1, with “line. […]” for “line.”

[7] = system: MYC; assay: MYC biomarker in tumor homogenate by ELISA, xenograft mice; format: in vivo, mouse; conditions: for MYC protein levels in tumor homogenate, Mean ± SD: ELISA, vehicle control 41.93 ± 5.38
Procedure: as §2

[8] = Plasma concentration of test compound in xenograft mice; format: in vivo, mouse; conditions: for concentration at 8 h: mouse, plasma, oral, tumor bearing mice, read-out: Test compound concentrations in plasma 8 h after last dose, Mean ± SD
Procedure: as §2

[9] = 15-100 mg/kg orally once daily for 3 weeks
[10] = 15 mg/kg orally once daily for 3 weeks
[11] = 35 mg/kg orally once daily for 3 weeks
[12] = 50 mg/kg orally once daily for 3 weeks
[13] = 100 mg/kg orally once daily for 3 weeks

Cc1nc(C)c(-c2ccc(=O)n(CC3CCN(c4ncnc5ncccc45)CC3)n2)s1 [test compound, 6-(2,4-dimethylthiazol-5-yl)-2-((1-(pyrido[2,3-d]pyrimidin-4-yl)piperidin-4-yl)methyl)pyridazin-3(2H)-one]
growth inhibition (mean % inhibition of cell growth) [1]: 28.1% | Body weight and clinical signs of animals [2]: apparently normal | growth inhibition (mean % inhibition of cell growth) [3]: 63.0% | Tumor volume, Mean ([4]; 15 mg/kg orally once daily, Day 0): 93 mm^3 | Tumor volume, Mean ([4]; 15 mg/kg orally once daily, Day 2): 137 mm^3 | Tumor volume, Mean ([4]; 15 mg/kg orally once daily, Day 5): 212 mm^3 | Tumor volume, Mean ([4]; 15 mg/kg orally once daily, Day 8): 330 mm^3 | Tumor volume, Mean ([4]; 15 mg/kg orally once daily, Day 10): 435 mm^3 | Tumor volume, Mean ([4]; 15 mg/kg orally once daily, Day 12): 534 mm^3 | Tumor volume, Mean ([4]; 15 mg/kg orally once daily, Day 14): 749 mm^3 | Tumor volume, Mean ([4]; 15 mg/kg orally once daily, Day 16): 921 mm^3 | Tumor volume, Mean ([4]; 15 mg/kg orally once daily, Day 19): 1157 mm^3 | Tumor volume, Mean ([4]; 15 mg/kg orally once daily, Day 21): 1494 mm^3 | Tumor volume, Mean ([4]; 35 mg/kg orally once daily, Day 0): 92 mm^3 | Tumor volume, Mean ([4]; 35 mg/kg orally once daily, Day 2): 129 mm^3 | Tumor volume, Mean ([4]; 35 mg/kg orally once daily, Day 5): 191 mm^3 | Tumor volume, Mean ([4]; 35 mg/kg orally once daily, Day 8): 307 mm^3 | Tumor volume, Mean ([4]; 35 mg/kg orally once daily, Day 10): 390 mm^3 | Tumor volume, Mean ([4]; 35 mg/kg orally once daily, Day 12): 485 mm^3 | Tumor volume, Mean ([4]; 35 mg/kg orally once daily, Day 14): 739 mm^3 | Tumor volume, Mean ([4]; 35 mg/kg orally once daily, Day 16): 897 mm^3 | Tumor volume, Mean ([4]; 35 mg/kg orally once daily, Day 19): 1101 mm^3 | Tumor volume, Mean ([4]; 35 mg/kg orally once daily, Day 21): 1459 mm^3 | Tumor volume, Mean ([4]; 50 mg/kg orally once daily, Day 0): 94 mm^3 | Tumor volume, Mean ([4]; 50 mg/kg orally once daily, Day 2): 123 mm^3 | Tumor volume, Mean ([4]; 50 mg/kg orally once daily, Day 5): 191 mm^3 | Tumor volume, Mean ([4]; 50 mg/kg orally once daily, Day 8): 295 mm^3 | Tumor volume, Mean ([4]; 50 mg/kg orally once daily, Day 10): 368 mm^3 | Tumor volume, Mean ([4]; 50 mg/kg orally once daily, Day 12): 463 mm^3 | Tumor volume, Mean ([4]; 50 mg/kg orally once daily, Day 14): 716 mm^3 | Tumor volume, Mean ([4]; 50 mg/kg orally once daily, Day 16): 875 mm^3 | Tumor volume, Mean ([4]; 50 mg/kg orally once daily, Day 19): 1078 mm^3 | Tumor volume, Mean ([4]; 50 mg/kg orally once daily, Day 21): 1397 mm^3 | Tumor volume, Mean ([4]; 100 mg/kg orally once daily, Day 0): 88 mm^3 | Tumor volume, Mean ([4]; 100 mg/kg orally once daily, Day 2): 126 mm^3 | Tumor volume, Mean ([4]; 100 mg/kg orally once daily, Day 5): 186 mm^3 | Tumor volume, Mean ([4]; 100 mg/kg orally once daily, Day 8): 290 mm^3 | Tumor volume, Mean ([4]; 100 mg/kg orally once daily, Day 10): 363 mm^3 | Tumor volume, Mean ([4]; 100 mg/kg orally once daily, Day 12): 458 mm^3 | Tumor volume, Mean ([4]; 100 mg/kg orally once daily, Day 14): 652 mm^3 | Tumor volume, Mean ([4]; 100 mg/kg orally once daily, Day 16): 782 mm^3 | Tumor volume, Mean ([4]; 100 mg/kg orally once daily, Day 19): 933 mm^3 | Tumor volume, Mean ([4]; 100 mg/kg orally once daily, Day 21): 1158 mm^3 | Histopathology of tumors compared to the vehicle [4, 9]: dose-dependent decrease in tumor cells, increase in necrosis and decrease in blood vessel formation | mean tumor volumes compared to the vehicle control on day 21 [4, 9]: dose-dependent decreases | growth inhibition (mean % inhibition of cell growth) [5]: 88.2% | changes in body weight versus the vehicle-treated group [6]: no significant changes | MYC protein levels in tumor homogenate, Mean ± SD [7, 10]: 35.70 ± 2.45 ng/mg tumor homogenate | MYC protein levels in tumor homogenate, Mean ± SD [7, 11]: 29.55 ± 2.93 ng/mg tumor homogenate | MYC protein levels in tumor homogenate, Mean ± SD [7, 12]: 29.11 ± 4.66 ng/mg tumor homogenate | MYC protein levels in tumor homogenate, Mean ± SD [7, 13]: 23.53 ± 4.28 ng/mg tumor homogenate | MYC biomarker levels in the tumor, trend with dose [7, 9]: dose-dependent decreases | concentrations of test compound in the plasma, trend with dose [8, 9]: dose-dependent increases | concentration at 8 h [8, 10]: 10.3 ± 1.7 ng/mL | concentration at 8 h [8, 11]: 42.6 ± 29.1 ng/mL | concentration at 8 h [8, 12]: 59.4 ± 21.9 ng/mL | concentration at 8 h [8, 13]: 230 ± 111 ng/mL
